Test [1] addresses T1, EF-P (A1S_2419) (Acinetobacter baumannii, UniProt A3M7E3).
T1 sequence (A3M7E3 1-189): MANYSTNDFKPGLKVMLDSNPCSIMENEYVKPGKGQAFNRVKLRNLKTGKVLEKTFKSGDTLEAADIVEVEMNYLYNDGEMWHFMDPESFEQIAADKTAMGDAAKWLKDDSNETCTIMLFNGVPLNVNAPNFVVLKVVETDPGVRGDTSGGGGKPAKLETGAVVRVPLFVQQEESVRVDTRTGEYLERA
Kind of test: isothermal titration calorimetry. The test is classed as binding. In general terms: ITC needs no label: the signal is the heat of the interaction.

Test [2] addresses T1, EF-P (A1S_2419). Kind of test: differential scanning fluorimetry. It is filed as binding. The conditions noted are these: 500 µM c-di-GMP. On the technique in general: Differential scanning fluorimetry follows unfolding on heating by fluorescence.

pKd: −log10 of the molar value.

Usually pKd stands for the Kd on a negative log10 scale, so that one unit is a factor of ten. A higher pKd goes with a low Kd. Turning to `Nc1nc2c(ncn2[C@@H]2O[C@@H]3COP(=O)(O)O[C@H]4[C@@H](O)[C@H](n5cnc6c(=O)[nH]c(N)nc65)O[C@@H]4COP(=O)(O)O[C@H]3[C@H]2O)c(=O)[nH]1` [c-di-GMP, bis-(3′-5′)-cyclic guanosine monophosphate], the values for the pKd at EF-P (A1S_2419) [1] and on EF-P of A. albensis were 5.23 and 4.97, respectively. On EF-P (A1S_2419) [2], the thermal shift result is reported as “The DSF assay showed a marked shift in the melting curve of EF-P”.

The values are drawn from PMC9564936 (Proceedings of the National Academy of Sciences of the …, 2022).
